Laboratory results reported in paper PMC4266358 (Journal of Medicinal Chemistry, 2014).
Entries after “also recorded” stand apart in the source; their conditions may differ.

Assays:
[1] = system: chronic constriction injury (CCI) of the sciatic nerve, mechano-allodynia; assay: CCI model of neuropathic pain in mice, oral dosing, paw withdrawal threshold; assay type: in vivo, mouse; settings: for in vivo duration of action: po, CCI model in mice
[2] = system: CNS receptors and ion channels (44 off-target sites); assay: PDSP broad screen of binding at off-target sites; settings: binding screen at 10 μM / Ki follow-up
[3] = system: CACO-2 cell monolayer / P-glycoprotein; assay: Bidirectional permeability in CACO-2 cell monolayer; settings: CACO-2 monolayer; for P-glycoprotein substrate: bidirectional permeability
[4] = target: T1, hA3AR (Homo sapiens, UniProt P0DMS8); assay: Radioligand binding at hA3AR, CHO cell membranes, [125I]I-AB-MECA; settings: read-out: hA3AR Ki, n = 3–4
T1 sequence (P0DMS8 1-318): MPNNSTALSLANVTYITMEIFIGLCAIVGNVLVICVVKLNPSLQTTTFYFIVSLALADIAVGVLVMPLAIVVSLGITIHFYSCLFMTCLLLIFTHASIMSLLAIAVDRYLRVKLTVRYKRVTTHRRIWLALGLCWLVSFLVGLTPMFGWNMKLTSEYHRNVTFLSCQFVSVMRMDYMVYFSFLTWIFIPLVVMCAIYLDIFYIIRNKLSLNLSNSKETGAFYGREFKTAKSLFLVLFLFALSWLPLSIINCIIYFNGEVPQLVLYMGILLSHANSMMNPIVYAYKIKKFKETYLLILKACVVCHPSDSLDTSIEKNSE

[5] = target: T2, mA3AR (Mus musculus, UniProt Q61618); assay type: cell-based
T2 sequence (Q61618 1-319): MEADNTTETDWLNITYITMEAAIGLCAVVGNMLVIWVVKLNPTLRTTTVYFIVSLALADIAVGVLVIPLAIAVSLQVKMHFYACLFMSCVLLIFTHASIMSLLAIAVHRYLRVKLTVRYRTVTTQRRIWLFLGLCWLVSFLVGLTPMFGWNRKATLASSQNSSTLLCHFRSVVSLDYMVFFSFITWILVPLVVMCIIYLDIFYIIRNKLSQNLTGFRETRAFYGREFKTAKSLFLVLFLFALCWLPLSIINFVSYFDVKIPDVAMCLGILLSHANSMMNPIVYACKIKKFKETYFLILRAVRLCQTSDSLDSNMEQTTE

[6] = Stability in rat liver microsomes
[7] = Stability in human liver microsomes
[8] = Stability in mouse liver microsomes
[9] = Plasma protein binding
[10] = Plasma protein binding; remark: listed apart in the source
[11] = Plasma protein binding; remark: listed apart in the source
[12] = Chemical stability in simulated gastric fluid; settings: pH 1.6, 37 °C
[13] = Chemical stability in simulated intestinal fluid; settings: pH 6.5, 37 °C

## CNC(=O)[C@@]12C[C@@H]1[C@@H](n1cnc3c(NC)nc(C#Cc4ccco4)nc31)[C@H](O)[C@@H]2O [Compound 27, (1S,2R,3S,4R,5S)-4-(2-(Furan-2-ylethynyl)-6-(methylamino)-9H-purin-9-yl)-2,3-dihydroxy-N-methylbicyclo[3.1.0]hexane-1-carboxamide]
[1]
  in vivo duration of action: ~3 h
[2]
  off-target interactions in PDSP screen: relatively free of off-target receptor effects; also recorded: completely lacks off-target interactions at 10 μM
[3]
  apical to basal permeability: moderate
  P-glycoprotein substrate: not to be substrates for P-glycoprotein

## CNC(=O)[C@@]12C[C@@H]1[C@@H](n1cnc3c(NC)nc(C#Cc4ccc(F)c(F)c4)nc31)[C@H](O)[C@@H]2O [Compound 13, reference compound]
[2]
  off-target interactions in PDSP screen: inhibited binding by >30% at only a few sites

## CNC(=O)[C@@]12C[C@@H]1[C@@H](n1cnc3c(NC)nc(C#Cc4cnccn4)nc31)[C@H](O)[C@@H]2O [Compound 23, (1S,2R,3S,4R,5S)-2,3-Dihydroxy-N-methyl-4-(6-(methylamino)-2-(pyrazin-2-ylethynyl)-9H-purin-9-yl)bicyclo[3.1.0]hexane-1-carboxamide]
[2]
  off-target interactions in PDSP screen: inhibited binding by >30% at only a few sites
[3]
  P-glycoprotein substrate: not to be substrates for P-glycoprotein

## CNC(=O)[C@@]12C[C@@H]1[C@@H](n1cnc3c(NC)nc(C#C[c-]4cccc4)nc31)[C@H](O)[C@@H]2O.[Fe+2].c1cc[cH-]c1 [Compound 36, (1S,2R,3S,4R,5S)-4-(2-((Ferrocen-yl)ethynyl)-6-(methylamino)-9H-purin-9-yl)-2,3-dihydroxy-N-methylbicyclo[3.1.0]hexane-1-carboxamide]
[4]
  Ki: 2.7 nM
[1]; 3 μmol/kg po on day 7 after CCI, mice, ipsilateral hind paw
  max effect Emax (% ± SEM), % of complete reversal at peak protection: 94.3 ± 5.7%
[1]
  in vivo duration of action: > 3 h
[5]; cyclic AMP assay, HEK293-mA3AR
  agonist efficacy at the mA3AR: full agonists
[6]
  stability in liver microsomes t1/2, rat: 6.64 min
[7]
  stability in liver microsomes t1/2, human: 3.66 min
[8]
  stability in liver microsomes t1/2, mouse: 1.98 min
[9]
  % unbound in plasma, rat: 6.32%
[10]
  % unbound in plasma, human: 7.00%
[11]
  % unbound in plasma, mouse: 4.85%
[12]
  stability in simulated fluids, gastric, t1/2: 46.5 min
[13]
  stability in simulated fluids, intestinal, t1/2: 174 min

## CNC(=O)[C@@]12C[C@@H]1[C@@H](n1cnc3c(NC)nc(C#Cc4ccc(Cl)s4)nc31)[C@H](O)[C@@H]2O [Compound 33, (1S,2R,3S,4R,5S)-4-(2-((5-Chlorothiophen-2-yl)ethynyl)-6-(methylamino)-9H-purin-9-yl)-2,3-dihydroxy-N-methylbicyclo[3.1.0]hexane-1-carboxamide]
[1]; […] po, Figure 1 dose–response
  reversal of neuropathic pain at intermediate dose: approximately 80%
[1]
  in vivo duration of action: > 3 h
[2]
  off-target interactions in PDSP screen: largely free of off-target receptor effects, except at TSPO and σ1 and σ2 receptors
[3]
  apical to basal permeability: moderate
  P-glycoprotein substrate: not to be substrates for P-glycoprotein

## CNC(=O)[C@@]12C[C@@H]1[C@@H](n1cnc3c(NC)nc(C#Cc4cccs4)nc31)[C@H](O)[C@@H]2O [Compound 32, (1S,2R,3S,4R,5S)-2,3-Dihydroxy-N-methyl-4-(6-(methylamino)-2-(thiophen-2-ylethynyl)-9H-purin-9-yl)bicyclo[3.1.0]hexane-1-carboxamide]
[5]
  IC50: 60.1 nM
[2]
  off-target interactions in PDSP screen: inhibited binding by >30% at only a few sites

## CNC(=O)[C@@]12C[C@@H]1[C@@H](n1cnc3c(NC)nc(C#Cc4cnn(C)c4)nc31)[C@H](O)[C@@H]2O [Compound 26, (1S,2R,3S,4R,5S)-2,3-Dihydroxy-N-methyl-4-(2-((1-methyl-1H-pyrazol-4-yl)ethynyl)-6-(methylamino)-9H-purin-9-yl)bicyclo[3.1.0]hexane-1-carboxamide]
[2]
  off-target interactions in PDSP screen: relatively free of off-target receptor effects
